Laboratory results reported in article PMC12090182, “Repurposing of the RIPK1-Selective Benzo[1,4]oxazepin-4-one Scaffold for the Development of a Type III LIMK1/2 Inhibitor” (ACS Chemical Biology, 2025).

What was measured:
Assay in all cases: biochemical
Type in all cases: binding
[1] = target: 468 kinases including some pathogenic mutants (Homo sapiens, UniProt O75716); settings: STK16 (Entrez STK16), 1000 nM; read-out: Percent Control
[2] = target: 468 kinases including some pathogenic mutants (Homo sapiens, UniProt P00519, Y253F); settings: read-out: Percent Control
[3] = target: 468 kinases including some pathogenic mutants (Homo sapiens, UniProt P08581, M1250T); settings: read-out: Percent Control
[4] = target: 468 kinases including some pathogenic mutants (Homo sapiens, UniProt P10721, V559D/V654A); settings: read-out: Percent Control
[5] = target: 468 kinases including some pathogenic mutants (Homo sapiens, UniProt P17948); settings: FLT1 (Entrez FLT1), 100 nM; read-out: Percent Control
[6] = target: 468 kinases including some pathogenic mutants (Homo sapiens, UniProt P21127); settings: CDC2L1 (Entrez CDK11B), 100 nM; read-out: Percent Control
[7] = target: 468 kinases including some pathogenic mutants (Homo sapiens, UniProt P22694); settings: PKAC-beta (Entrez PRKACB), 100 nM; read-out: Percent Control
[8] = target: 468 kinases including some pathogenic mutants (Homo sapiens, UniProt P28482); settings: ERK2 (Entrez MAPK1), 100 nM; read-out: Percent Control
[9] = target: 468 kinases including some pathogenic mutants (Homo sapiens, UniProt P36888, R834Q); settings: read-out: Percent Control
[10] = target: 468 kinases including some pathogenic mutants (Homo sapiens, UniProt P37023); settings: ACVRL1 (Entrez ACVRL1), 100 nM; read-out: Percent Control
[11] = target: 468 kinases including some pathogenic mutants (Homo sapiens, UniProt P42336, I800L); settings: read-out: Percent Control
[12] = target: 468 kinases including some pathogenic mutants (Homo sapiens, UniProt P42338); settings: PIK3CB (Entrez PIK3CB), 100 nM; read-out: Percent Control
[13] = target: 468 kinases including some pathogenic mutants (Homo sapiens, UniProt P50750); settings: CDK9 (Entrez CDK9), 100 nM; read-out: Percent Control
[14] = target: 468 kinases including some pathogenic mutants (Homo sapiens, UniProt P52333); settings: JAK3(JH1domain-catalytic) (Entrez JAK3), 100 nM; read-out: Percent Control
[15] = target: 468 kinases including some pathogenic mutants (Homo sapiens, UniProt P53355); settings: DAPK1 (Entrez DAPK1), 100 nM; read-out: Percent Control
[16] = target: 468 kinases including some pathogenic mutants (Homo sapiens, UniProt P54760); settings: EPHB4 (Entrez EPHB4), 100 nM; read-out: Percent Control
[17] = target: 468 kinases including some pathogenic mutants (Homo sapiens, UniProt P57059); settings: SIK (Entrez SIK1), 100 nM; read-out: Percent Control
[18] = target: 468 kinases including some pathogenic mutants (Homo sapiens, UniProt Q00526); settings: CDK3 (Entrez CDK3), 100 nM; read-out: Percent Control
[19] = target: 468 kinases including some pathogenic mutants (Homo sapiens, UniProt Q13043); settings: MST1 (Entrez STK4), 100 nM; read-out: Percent Control
[20] = target: 468 kinases including some pathogenic mutants (Homo sapiens, UniProt Q15349); settings: read-out: Percent Control
[21] = target: 468 kinases including some pathogenic mutants (Homo sapiens, UniProt Q16832); settings: DDR2 (Entrez DDR2), 100 nM; read-out: Percent Control
[22] = target: 468 kinases including some pathogenic mutants (Homo sapiens, UniProt Q8N4C8); settings: MINK (Entrez MINK1), 100 nM; read-out: Percent Control
[23] = target: 468 kinases including some pathogenic mutants (Homo sapiens, UniProt Q8NFD2); settings: ANKK1 (Entrez ANKK1), 100 nM; read-out: Percent Control
[24] = target: 468 kinases including some pathogenic mutants (Homo sapiens, UniProt Q8TF76); settings: HASPIN (Entrez GSG2), 100 nM; read-out: Percent Control
[25] = target: 468 kinases including some pathogenic mutants (Homo sapiens, UniProt Q9H2G2); settings: SLK (Entrez SLK), 100 nM; read-out: Percent Control
[26] = target: 468 kinases including some pathogenic mutants (Homo sapiens, UniProt Q9NQU5); settings: PAK6 (Entrez PAK6), 1000 nM; read-out: Percent Control
[27] = target: 468 kinases including some pathogenic mutants (Homo sapiens, UniProt Q9NRM7); settings: LATS2 (Entrez LATS2), 100 nM; read-out: Percent Control
[28] = target: 468 kinases including some pathogenic mutants (Homo sapiens, UniProt Q9UEW8); settings: STK39 (Entrez STK39), 100 nM; read-out: Percent Control
[29] = target: 468 kinases including some pathogenic mutants (Homo sapiens, UniProt Q9Y2H9); settings: MAST1 (Entrez MAST1), 100 nM; read-out: Percent Control

Sequence of 468 kinases including some pathogenic mutants (Homo sapiens, UniProt Q15349) (Q15349 whole entry, change not shown): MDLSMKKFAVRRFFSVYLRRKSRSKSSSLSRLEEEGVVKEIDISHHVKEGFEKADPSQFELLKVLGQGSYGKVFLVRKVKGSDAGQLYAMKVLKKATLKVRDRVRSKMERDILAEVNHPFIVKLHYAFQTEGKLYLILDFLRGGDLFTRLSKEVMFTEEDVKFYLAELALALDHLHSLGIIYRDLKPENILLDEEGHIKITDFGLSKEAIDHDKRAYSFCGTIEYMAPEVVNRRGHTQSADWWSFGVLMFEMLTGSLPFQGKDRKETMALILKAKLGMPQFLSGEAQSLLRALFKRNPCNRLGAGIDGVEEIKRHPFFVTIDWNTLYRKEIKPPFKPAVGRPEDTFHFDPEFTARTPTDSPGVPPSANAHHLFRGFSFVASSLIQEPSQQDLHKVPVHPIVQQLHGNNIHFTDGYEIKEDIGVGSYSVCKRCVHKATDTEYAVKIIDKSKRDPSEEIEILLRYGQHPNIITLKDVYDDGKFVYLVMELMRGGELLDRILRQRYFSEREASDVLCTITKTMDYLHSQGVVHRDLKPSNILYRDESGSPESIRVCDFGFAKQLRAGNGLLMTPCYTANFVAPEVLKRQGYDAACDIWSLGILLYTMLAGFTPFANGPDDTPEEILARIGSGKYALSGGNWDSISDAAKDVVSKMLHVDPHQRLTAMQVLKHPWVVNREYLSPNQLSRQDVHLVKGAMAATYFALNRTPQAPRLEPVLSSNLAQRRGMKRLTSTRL
Sequence of 468 kinases including some pathogenic mutants (Homo sapiens, UniProt P17948) (P17948 27-1338, change not shown): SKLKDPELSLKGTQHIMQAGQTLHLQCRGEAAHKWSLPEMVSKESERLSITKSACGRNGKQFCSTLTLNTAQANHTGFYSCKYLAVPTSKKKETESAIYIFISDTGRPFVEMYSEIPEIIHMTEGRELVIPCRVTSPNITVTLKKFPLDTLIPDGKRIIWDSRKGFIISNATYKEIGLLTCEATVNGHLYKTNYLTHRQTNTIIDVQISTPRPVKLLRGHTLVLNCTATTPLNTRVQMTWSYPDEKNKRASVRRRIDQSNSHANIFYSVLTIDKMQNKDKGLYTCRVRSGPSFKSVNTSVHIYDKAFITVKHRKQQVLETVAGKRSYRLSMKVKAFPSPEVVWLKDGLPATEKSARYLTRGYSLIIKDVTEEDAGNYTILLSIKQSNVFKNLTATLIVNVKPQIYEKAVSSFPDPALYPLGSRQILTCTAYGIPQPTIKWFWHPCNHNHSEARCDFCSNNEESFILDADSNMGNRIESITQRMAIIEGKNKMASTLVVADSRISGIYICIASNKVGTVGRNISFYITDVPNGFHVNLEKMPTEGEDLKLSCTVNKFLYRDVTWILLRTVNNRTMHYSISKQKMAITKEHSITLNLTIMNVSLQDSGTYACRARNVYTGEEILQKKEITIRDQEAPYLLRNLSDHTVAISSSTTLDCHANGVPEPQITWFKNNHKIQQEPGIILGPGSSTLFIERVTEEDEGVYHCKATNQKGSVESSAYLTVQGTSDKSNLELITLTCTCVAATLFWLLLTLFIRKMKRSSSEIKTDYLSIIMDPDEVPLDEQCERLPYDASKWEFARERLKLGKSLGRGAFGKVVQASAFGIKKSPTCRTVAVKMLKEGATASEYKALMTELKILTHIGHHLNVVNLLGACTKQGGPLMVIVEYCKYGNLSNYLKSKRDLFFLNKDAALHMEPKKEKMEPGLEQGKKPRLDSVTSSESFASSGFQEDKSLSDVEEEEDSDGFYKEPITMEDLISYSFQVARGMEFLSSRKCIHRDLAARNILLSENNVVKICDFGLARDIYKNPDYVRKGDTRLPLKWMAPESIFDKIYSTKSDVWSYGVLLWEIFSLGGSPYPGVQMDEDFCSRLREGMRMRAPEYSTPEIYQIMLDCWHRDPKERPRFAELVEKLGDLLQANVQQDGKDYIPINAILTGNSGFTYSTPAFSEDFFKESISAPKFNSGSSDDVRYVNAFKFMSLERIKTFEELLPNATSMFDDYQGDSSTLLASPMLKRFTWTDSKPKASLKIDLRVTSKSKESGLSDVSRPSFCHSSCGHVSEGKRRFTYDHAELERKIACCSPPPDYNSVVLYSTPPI
Sequence of 468 kinases including some pathogenic mutants (Homo sapiens, UniProt P52333) (P52333 whole entry, change not shown): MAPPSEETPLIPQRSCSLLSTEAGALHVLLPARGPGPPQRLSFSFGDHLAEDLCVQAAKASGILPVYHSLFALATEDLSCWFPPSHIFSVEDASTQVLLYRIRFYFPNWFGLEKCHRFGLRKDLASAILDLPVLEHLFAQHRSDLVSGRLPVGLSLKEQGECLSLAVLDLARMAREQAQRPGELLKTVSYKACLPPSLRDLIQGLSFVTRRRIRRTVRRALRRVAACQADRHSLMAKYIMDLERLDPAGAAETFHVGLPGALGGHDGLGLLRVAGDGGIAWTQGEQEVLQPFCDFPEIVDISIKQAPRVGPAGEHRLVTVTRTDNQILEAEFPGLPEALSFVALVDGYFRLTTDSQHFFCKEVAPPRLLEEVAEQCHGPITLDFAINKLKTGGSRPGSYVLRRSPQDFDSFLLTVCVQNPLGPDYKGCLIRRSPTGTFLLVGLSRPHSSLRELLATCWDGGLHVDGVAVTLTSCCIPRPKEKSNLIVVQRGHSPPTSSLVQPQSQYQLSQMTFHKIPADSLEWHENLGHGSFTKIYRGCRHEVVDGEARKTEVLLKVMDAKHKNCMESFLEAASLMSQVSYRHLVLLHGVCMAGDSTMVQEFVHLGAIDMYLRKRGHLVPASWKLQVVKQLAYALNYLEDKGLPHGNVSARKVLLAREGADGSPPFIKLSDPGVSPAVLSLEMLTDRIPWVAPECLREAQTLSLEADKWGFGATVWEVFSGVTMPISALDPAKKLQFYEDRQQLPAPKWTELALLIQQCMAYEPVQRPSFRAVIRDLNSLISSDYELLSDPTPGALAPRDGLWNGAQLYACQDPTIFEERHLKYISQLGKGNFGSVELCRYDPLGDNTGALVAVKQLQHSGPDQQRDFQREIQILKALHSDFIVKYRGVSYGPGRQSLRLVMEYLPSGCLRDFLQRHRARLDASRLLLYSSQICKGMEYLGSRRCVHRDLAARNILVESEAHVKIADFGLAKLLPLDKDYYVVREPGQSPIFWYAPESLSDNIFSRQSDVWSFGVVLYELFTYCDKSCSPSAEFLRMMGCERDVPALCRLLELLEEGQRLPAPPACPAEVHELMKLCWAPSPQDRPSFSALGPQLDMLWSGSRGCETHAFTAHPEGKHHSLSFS
Sequence of 468 kinases including some pathogenic mutants (Homo sapiens, UniProt Q00526) (Q00526 whole entry, change not shown): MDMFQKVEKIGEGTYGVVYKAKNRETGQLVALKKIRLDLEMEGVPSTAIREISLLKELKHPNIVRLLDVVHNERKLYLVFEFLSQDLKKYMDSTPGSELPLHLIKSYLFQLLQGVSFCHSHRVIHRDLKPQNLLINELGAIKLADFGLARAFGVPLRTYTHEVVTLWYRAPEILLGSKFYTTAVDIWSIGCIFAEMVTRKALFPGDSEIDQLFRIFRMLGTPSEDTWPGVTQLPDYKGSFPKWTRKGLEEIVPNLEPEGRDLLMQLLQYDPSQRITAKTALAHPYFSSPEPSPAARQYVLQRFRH
Sequence of 468 kinases including some pathogenic mutants (Homo sapiens, UniProt Q9NQU5) (Q9NQU5 whole entry, change not shown): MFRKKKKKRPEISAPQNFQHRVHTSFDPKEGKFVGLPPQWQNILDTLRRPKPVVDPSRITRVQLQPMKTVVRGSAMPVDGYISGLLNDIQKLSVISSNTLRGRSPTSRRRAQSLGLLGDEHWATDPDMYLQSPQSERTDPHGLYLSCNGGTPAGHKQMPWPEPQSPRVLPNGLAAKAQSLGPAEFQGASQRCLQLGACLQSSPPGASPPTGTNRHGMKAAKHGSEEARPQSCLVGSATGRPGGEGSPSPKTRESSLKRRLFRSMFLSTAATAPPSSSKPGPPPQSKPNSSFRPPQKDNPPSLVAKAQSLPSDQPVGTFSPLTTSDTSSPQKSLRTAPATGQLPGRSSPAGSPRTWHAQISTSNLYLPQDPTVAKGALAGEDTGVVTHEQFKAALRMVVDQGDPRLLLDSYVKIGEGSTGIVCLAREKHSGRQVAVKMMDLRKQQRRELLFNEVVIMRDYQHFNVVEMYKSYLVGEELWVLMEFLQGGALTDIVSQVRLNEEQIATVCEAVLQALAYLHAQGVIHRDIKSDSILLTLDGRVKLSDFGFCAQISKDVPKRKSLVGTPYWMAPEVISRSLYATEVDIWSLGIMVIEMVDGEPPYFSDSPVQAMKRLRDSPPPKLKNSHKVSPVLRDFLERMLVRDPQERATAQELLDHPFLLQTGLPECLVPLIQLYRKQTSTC
Sequence of 468 kinases including some pathogenic mutants (Homo sapiens, UniProt Q8NFD2) (Q8NFD2 whole entry, change not shown): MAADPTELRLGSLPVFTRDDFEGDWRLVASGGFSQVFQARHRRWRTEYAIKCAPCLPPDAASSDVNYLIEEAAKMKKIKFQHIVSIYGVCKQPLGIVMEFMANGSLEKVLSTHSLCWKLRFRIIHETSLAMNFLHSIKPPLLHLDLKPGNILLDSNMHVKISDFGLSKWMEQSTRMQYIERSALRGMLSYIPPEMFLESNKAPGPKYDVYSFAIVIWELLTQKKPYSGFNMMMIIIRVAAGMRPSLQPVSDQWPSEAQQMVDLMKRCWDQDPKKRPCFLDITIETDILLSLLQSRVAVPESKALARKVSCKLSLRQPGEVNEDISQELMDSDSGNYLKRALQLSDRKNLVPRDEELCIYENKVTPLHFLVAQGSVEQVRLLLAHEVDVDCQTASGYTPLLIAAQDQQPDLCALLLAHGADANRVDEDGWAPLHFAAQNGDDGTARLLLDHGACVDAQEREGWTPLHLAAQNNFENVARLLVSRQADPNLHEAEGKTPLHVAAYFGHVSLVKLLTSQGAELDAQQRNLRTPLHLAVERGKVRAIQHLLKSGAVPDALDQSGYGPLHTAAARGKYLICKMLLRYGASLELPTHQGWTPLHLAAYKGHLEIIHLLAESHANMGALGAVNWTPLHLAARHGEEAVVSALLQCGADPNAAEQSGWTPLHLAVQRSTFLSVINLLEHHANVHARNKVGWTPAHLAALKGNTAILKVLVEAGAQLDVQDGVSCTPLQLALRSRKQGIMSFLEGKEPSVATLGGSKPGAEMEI

Molecule CN1C(=O)[C@@H](N2CCc3c(nn(Cc4ccccc4)c3C(N)=O)C2=O)COc2cc(Cl)ccc21 [Compound 10, (S)-2-benzyl-6-(8-chloro-5-methyl-4-oxo-2,3,4,5-tetrahydrobenzo[b][1,4]oxazepin-3-yl)-7-oxo-4,5,6,7-tetrahydro-2H-pyrazolo[3,4-c]pyridine-3-carboxamide] has a remaining activity at 1 µM [1] of 100%, a remaining activity at 0.1 µM [2] of 76% and a remaining activity at 0.1 µM [3] of 80%. For the same molecule, the remaining activity at 0.1 µM [4] was 82%, the remaining activity at 0.1 µM [5] was 78% and the remaining activity at 0.1 µM [6] was 88%. It also gave a remaining activity at 0.1 µM [7] of 56%, a remaining activity at 0.1 µM [8] of 77% and a remaining activity at 0.1 µM [9] of 81%. It also gave a remaining activity at 0.1 µM [10] of 73%, a remaining activity at 0.1 µM [11] of 71% and a remaining activity at 0.1 µM [12] of 100%. It also gave a remaining activity at 0.1 µM [13] of 92%, a remaining activity at 0.1 µM [14] of 100% and a remaining activity at 0.1 µM [15] of 93%. The remaining activity at 0.1 µM [16] was 72%, the remaining activity at 0.1 µM [17] was 71% and the remaining activity at 0.1 µM [18] was 80%. It also gave a remaining activity at 0.1 µM [19] of 58%, a remaining activity at 0.1 µM ([20]; RSK3(Kin.Dom.1-N-terminal) (Entrez RPS6KA2), 100 nM) of 100% and a remaining activity at 1 µM ([20]; RSK3(Kin.Dom.2-C-terminal) (Entrez RPS6KA2), 1000 nM) of 100%. For the same molecule, the remaining activity at 0.1 µM [21] was 84%, the remaining activity at 0.1 µM [22] was 94% and the remaining activity at 0.1 µM [23] was 77%. For the same molecule, the remaining activity at 0.1 µM [24] was 89%, the remaining activity at 0.1 µM [25] was 89% and the remaining activity at 1 µM [26] was 100%. For the same molecule, the remaining activity at 0.1 µM [27] was 68%, the remaining activity at 0.1 µM [28] was 67% and the remaining activity at 0.1 µM [29] was 67%.
